Data as given in article PMC6478823, “A suite of phenotypic assays to ensure pipeline diversity when prioritizing drug-like Cryptosporidium growth inhibitors” (Nature Communications, 2019).
Like-named read-outs stand apart in the source and are kept apart here.

Tests used:
Cryptosporidium [1] = test system: Cryptosporidium; set-up: method as in Gorla, et al. 2014. AAC.; details: ref Gorla, et al. 2014. AAC.; cited from earlier work
C. parvum [2] = experiment: Egress, motility, reinvasion assay (PV ratio); details: compound at EC90; for Egress and Reinvasion Assay: Mean PV ratios (19.5h:6h), Average: average of replicates; for Egress and Reinvasion Assay: Mean PV ratios (19.5h:6h), Replicate 1a: single replicate 1; for Egress and Reinvasion Assay: Mean PV ratios (19.5h:6h), Replicate 2a: single replicate 2; for Egress and Reinvasion Assay: Mean PV ratios (19.5h:6h), Replicate 3a: single replicate 3; for Egress and Reinvasion Assay: Mean PV ratios (19.5h:6h), Replicate 4a: single replicate 4
Description: For quantification of parasitophorous vacuoles over time, HCT-8 cells were grown to greater than 90% confluence in 384-well plates and infected with 11,000 oocysts after triggering excystation.

C. parvum [3] = experiment: 48 h Cryptosporidium growth inhibition assay; format: cell-based, Cryptosporidium parvum; details: compound added 3 h post-infection, read at 48 h
Source text: As a first step in developing specific Cryptosporidium mode of action assays, we conducted a series of light microscopy time-lapse and transmission electron microscopy (TEM) time course experiments in order to precisely define C. parvum development within the HCT-8 cell culture system. […] This synchronicity was exploited by modifying a previously developed high-content microscopy assay. These assay modifications enabled the evaluation of several key events within the life cycle: host cell invasion, intracellular replication, host cell egress and establishment of new parasitophorous vacuoles, and sexual differentiation. […] Since the methods all used automated liquid handling, imaging, and image analysis, the assay methods all incorporated nuclear staining to monitor host cell numbers and enable recognition of HCT-8 cell monolayer damage, for example as an artifact from a malfunctioning plate washer or from unanticipated cytotoxicity of the compounds.
Human ileocecal adenocarcinoma (HCT-8) cells were purchased from ATCC (catalog# CCL-244) and cultured in ATCC modified RPMI-1640 medium (Gibco, catalog# A10491–01), supplemented with 10% heat-inactivated fetal bovine serum (Sigma-Aldrich, catalog# 12306C) and 120 U/mL penicillin and 120 μg/mL streptomycin (Gibco, catalog# 15140-122) (culture media). […] For all experiments, HCT-8 cells between passages 9 and 39 were used. C. parvum (Iowa isolate) oocysts were purchased from Bunchgrass Farm (Deary, ID), stored at 4 °C and used within 5 months of collection from an infected calf. To induce excystation, oocysts were first treated with 10 mM hydrochloric acid for 10 min at 37 °C, spun at 14,000×g for 4.5 min at room temperature, treated with 2 mM sodium taurocholate for 10 min at 16 °C, spun as before, and resuspended in culture media for infection.
A modification of a previously reported immunofluorescence assay was used to determine the EC50 and EC90 of compounds[13]. HCT-8 cells were grown to ≥ 90% confluence in 384-well plates (Corning, catalog# 353962) and infected with 5500 oocysts per well after they were induced for excystation as described above. Different concentrations of compounds were added 3 h post-infection and plates were incubated for another 45 h in a 5% CO2 incubator at 37 °C. Wells were then washed 3 times with PBS containing 111 mM D-galactose (PBS-D-gal), fixed with 4% paraformaldehyde (PFA) in PBS for 15 min at room temperature, permeabilized with 0.25% Triton X-100 for 10 min at 37 °C, washed 3 times with PBS with 0.1% Tween 20, and blocked with 4% bovine serum albumin (BSA) in PBS for 2 h at 37 °C or 4 °C overnight. Parasitophorous vacuoles were stained with 1.33 µg/mL of fluorescein-labeled Vicia villosa lectin (Vector Laboratories, catalog# FL-1231) diluted in 1% BSA in PBS with 0.1% Tween 20 for 1 h at 37 °C, followed by addition of Hoechst 33258 (AnaSpec, catalog# AS-83219) at 0.09 mM diluted in water for another 15 min at 37 °C. Wells were then washed 5 times with PBS containing 0.1% Tween 20. A Nikon Eclipse Ti2000 epifluorescence microscope with an automated stage was programmed using NIS-Elements Advanced Research software (Nikon, USA) to focus on the center of each well and take a 3 × 3 or 6 × 6 composite image using an EXi blue fluorescence microscopy camera (QImaging, Canada) with a 20 × objective (NA = 0.45). Nuclei and parasite images were separately exported as.tif files and analyzed using macros developed on the ImageJ platform (National Institutes of Health)[13].

C. parvum [4] = details: cited from earlier work
Cryptosporidium [5] = details: cited from earlier work
[6] = read-out: Regular 3 to 48 h assay in vitro EC90, C. parvum in HCT-8 cells
[7] = Cryptosporidium parvum, HCT-8, read-out: Regular 3 to 48 h assay in vitro EC90, C. parvum in HCT-8 cells
[8] = ref Love, et al. 2017. PLoS NTD.

| Compound | efficacy in the acute IL-12 knockout mouse model of cryptosporidiosis (Cryptosporidium [1]) | Egress and Reinvasion Assay: Mean PV ratios (19.5h:6h), Average (C. parvum [2]) | Egress and Reinvasion Assay: Mean PV ratios (19.5h:6h), Replicate 1a (C. parvum [2]) | Egress and Reinvasion Assay: Mean PV ratios (19.5h:6h), Replicate 2a (C. parvum [2]) | Egress and Reinvasion Assay: Mean PV ratios (19.5h:6h), Replicate 3a (C. parvum [2]) | Egress and Reinvasion Assay: Mean PV ratios (19.5h:6h), Replicate 4a (C. parvum [2]) | EC90 (C. parvum [3]; [6]) [µM] | activity in NSG mouse model (C. parvum [4]; ref Jumani, et al. 2018. AAC.) | EC90 (C. parvum [3]; [7]) [µM] | efficacy in acute, self-resolving IFN-γ KO mouse model (Cryptosporidium [5]) | activity in IFN-γ knockout mouse model (Cryptosporidium [5]; [8]) | efficacy in chronic NOD SCID gamma (NSG) mouse model (C. parvum [4]) | activity in NOD SCID γ mouse model (C. parvum [4]; [8]) |
| --- | --- | --- | --- | --- | --- | --- | --- | --- | --- | --- | --- | --- | --- |
| CC(=NOCCN)c1cccc(C(C)(C)NC(=O)Nc2ccc(Cl)c(C(F)(F)F)c2)c1 [P257] | efficacious | 0.84 | 1.06 | 0.97 | 0.68 | 0.65 | 34.3 | – | – | – | – | – | – |
| Oc1c(CN2CCN(c3ccccc3F)CC2)cc(Br)c2cccnc12 [A-6] | – | 0.79 | 0.65 | 0.93 | – | – | 1.33 | – | – | – | – | – | – |
| Cc1cccc(-n2ncc3c(=O)[nH]c(-n4nc(C)cc4NC(=O)C4CC4)nc32)c1 [C-4] | – | 0.48 | 0.49 | 0.48 | – | – | 5.17 | – | – | – | – | – | – |
| CCOc1ccc(Cl)c2c1B(O)OC2CN (stereo not shown) [AN6426] | – | 0.93 | 1.07 | 1.05 | 0.86 | 0.75 | 19.5 | – | – | – | – | – | – |
| NC[C@@H]1O[C@H](O[C@H]2[C@@H](O)[C@H](O[C@@H]3[C@@H](O)[C@H](N)C[C@H](N)[C@H]3O[C@H]3O[C@H](CO)[C@@H](O)[C@H](O)[C@H]3N)O[C@@H]2CO)[C@H](N)[C@@H](O)[C@@H]1O [Paromomycin] | – | 2.15 | 2.19 | 2.11 | – | – | – | active | 2390 | – | – | – | – |
| CC(C)/N=c1\cc2n(-c3ccc(Cl)cc3)c3ccccc3nc-2cc1Nc1ccc(Cl)cc1 [Clofazimine] | – | 0.77 | 1.03 | 1.03 | 0.51 | 0.49 | – | – | 19.6 | efficacious | active | not efficacious | inactive |
| CCC(C)n1ncn(-c2ccc(N3CCN(c4ccc(OCC5COC(Cn6cncn6)(c6ccc(Cl)cc6Cl)O5)cc4)CC3)cc2)c1=O (stereo not shown) [Itraconazole] | – | 1.77 | 2.21 | 1.33 | – | – | – | – | 7.24 | – | – | – | – |
